Measured values taken from BigSolDB 2.1.

CC(=O)Oc1ccccc1C(=O)O
Conditions	solubility (mole fraction)
in acetone, 281.9 K	0.061
in acetone, 290.6 K	0.075
in acetone, 297.9 K	0.088
in acetone, 304.4 K	0.101
in acetone, 310.6 K	0.114
in acetone, 315.3 K	0.127
in acetone, 319.8 K	0.139
in acetone, 323.3 K	0.151
in acetone, 326.3 K	0.162
in ethanol, 276.3 K	0.025
in ethanol, 291.9 K	0.049
in ethanol, 302.4 K	0.071
in ethanol, 310 K	0.093
in ethanol, 316.5 K	0.113
in ethanol, 321.5 K	0.133
in ethanol, 325.9 K	0.152
in ethanol, 330.4 K	0.17
in ethanol, 333.4 K	0.187
in ethanol, 336.6 K	0.204
in isopropanol, 281.6 K	0.013
in isopropanol, 291.8 K	0.032
in isopropanol, 304.1 K	0.063
in isopropanol, 312.9 K	0.091
in isopropanol, 316.1 K	0.102
in isopropanol, 320.4 K	0.118
in isopropanol, 322.7 K	0.128
in isopropanol, 325.8 K	0.143
in isopropanol, 327.7 K	0.153
in isopropanol, 330.2 K	0.167
in propylene glycol, 295.7 K	0.017
in propylene glycol, 301.1 K	0.025
in propylene glycol, 305.1 K	0.033
in propylene glycol, 308.2 K	0.041
in propylene glycol, 313.6 K	0.056
in propylene glycol, 318.3 K	0.071
in propylene glycol, 323.7 K	0.092
in propylene glycol, 327.9 K	0.112
in propylene glycol, 330.7 K	0.126
in propylene glycol, 333.9 K	0.145
